Source: patent US6410552B1, “Benzoether and related compositions and methods” (Ortho-McNeil Pharmaceutical, Inc., priority 2000, dated 2002)
pIC50: −log10 of the molar value.

These compounds were tested against T1, calcium channel (Oryctolagus cuniculus, UniProt P15381) (assay: Assay for Inhibition of Nitrendipine Binding (3H-nitrendipine, heart membranes)). Conditions: displacement of 3H-nitrendipine (0.05-0.50 nM) from rabbit heart membranes, 90 minutes at 4° C.
T1 construct: from tissue; host or cells: rabbit heart membranes
T1 sequence (P15381 whole entry, other chains not shown): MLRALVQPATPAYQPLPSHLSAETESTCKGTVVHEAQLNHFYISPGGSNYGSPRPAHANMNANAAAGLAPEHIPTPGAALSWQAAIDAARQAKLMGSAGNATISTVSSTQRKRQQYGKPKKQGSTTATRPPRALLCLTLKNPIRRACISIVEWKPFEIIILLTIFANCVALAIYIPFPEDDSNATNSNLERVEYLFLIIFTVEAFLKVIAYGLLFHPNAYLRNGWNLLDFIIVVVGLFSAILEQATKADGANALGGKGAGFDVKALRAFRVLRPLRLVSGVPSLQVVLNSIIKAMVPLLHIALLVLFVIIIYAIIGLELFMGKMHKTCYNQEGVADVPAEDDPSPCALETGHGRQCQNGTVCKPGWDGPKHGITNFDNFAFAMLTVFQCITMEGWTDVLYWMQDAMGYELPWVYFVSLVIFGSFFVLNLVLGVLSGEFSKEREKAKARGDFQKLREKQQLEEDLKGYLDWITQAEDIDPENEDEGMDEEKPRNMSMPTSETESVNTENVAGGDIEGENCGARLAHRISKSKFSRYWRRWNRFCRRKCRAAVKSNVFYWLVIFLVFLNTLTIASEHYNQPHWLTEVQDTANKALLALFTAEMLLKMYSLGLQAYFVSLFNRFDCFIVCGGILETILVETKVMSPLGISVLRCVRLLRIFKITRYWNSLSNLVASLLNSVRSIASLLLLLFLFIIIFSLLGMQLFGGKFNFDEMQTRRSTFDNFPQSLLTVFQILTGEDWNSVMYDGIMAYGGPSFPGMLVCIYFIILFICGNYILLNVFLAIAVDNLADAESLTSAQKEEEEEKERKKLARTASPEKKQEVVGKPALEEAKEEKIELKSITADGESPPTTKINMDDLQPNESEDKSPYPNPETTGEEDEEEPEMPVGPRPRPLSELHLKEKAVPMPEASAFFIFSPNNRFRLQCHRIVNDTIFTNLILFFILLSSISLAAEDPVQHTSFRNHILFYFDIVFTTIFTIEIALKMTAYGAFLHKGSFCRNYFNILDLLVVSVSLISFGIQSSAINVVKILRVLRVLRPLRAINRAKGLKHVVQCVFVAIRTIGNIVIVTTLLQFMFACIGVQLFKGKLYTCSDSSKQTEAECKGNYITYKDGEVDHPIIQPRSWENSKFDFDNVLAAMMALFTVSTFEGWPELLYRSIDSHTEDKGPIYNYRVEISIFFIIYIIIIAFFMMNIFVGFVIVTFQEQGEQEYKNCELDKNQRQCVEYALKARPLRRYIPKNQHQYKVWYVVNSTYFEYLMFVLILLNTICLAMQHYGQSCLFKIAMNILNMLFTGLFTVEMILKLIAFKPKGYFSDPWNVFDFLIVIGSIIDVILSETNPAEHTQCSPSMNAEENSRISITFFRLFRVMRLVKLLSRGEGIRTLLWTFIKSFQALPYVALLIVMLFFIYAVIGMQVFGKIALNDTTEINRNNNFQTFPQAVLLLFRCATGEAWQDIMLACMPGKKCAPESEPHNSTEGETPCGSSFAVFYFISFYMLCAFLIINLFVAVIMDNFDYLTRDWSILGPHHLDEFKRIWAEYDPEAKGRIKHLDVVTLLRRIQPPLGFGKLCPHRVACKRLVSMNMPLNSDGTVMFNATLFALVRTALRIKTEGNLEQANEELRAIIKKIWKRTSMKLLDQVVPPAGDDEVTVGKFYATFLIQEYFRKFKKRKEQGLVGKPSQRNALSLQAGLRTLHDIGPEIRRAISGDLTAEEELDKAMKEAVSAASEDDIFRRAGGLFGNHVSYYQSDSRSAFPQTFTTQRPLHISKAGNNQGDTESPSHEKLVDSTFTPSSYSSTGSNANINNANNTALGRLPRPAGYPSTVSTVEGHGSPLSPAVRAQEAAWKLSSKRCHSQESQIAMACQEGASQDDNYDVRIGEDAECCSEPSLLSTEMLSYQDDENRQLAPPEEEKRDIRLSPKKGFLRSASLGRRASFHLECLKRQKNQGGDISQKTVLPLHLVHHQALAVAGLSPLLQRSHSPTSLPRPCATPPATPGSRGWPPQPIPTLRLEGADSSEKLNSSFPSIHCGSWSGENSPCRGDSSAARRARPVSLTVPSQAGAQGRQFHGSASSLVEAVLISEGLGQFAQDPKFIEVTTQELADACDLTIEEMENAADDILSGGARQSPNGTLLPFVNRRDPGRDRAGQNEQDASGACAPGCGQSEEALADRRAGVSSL
T1 sequence (P13806 27-960 partner limits assumed, other chains not shown): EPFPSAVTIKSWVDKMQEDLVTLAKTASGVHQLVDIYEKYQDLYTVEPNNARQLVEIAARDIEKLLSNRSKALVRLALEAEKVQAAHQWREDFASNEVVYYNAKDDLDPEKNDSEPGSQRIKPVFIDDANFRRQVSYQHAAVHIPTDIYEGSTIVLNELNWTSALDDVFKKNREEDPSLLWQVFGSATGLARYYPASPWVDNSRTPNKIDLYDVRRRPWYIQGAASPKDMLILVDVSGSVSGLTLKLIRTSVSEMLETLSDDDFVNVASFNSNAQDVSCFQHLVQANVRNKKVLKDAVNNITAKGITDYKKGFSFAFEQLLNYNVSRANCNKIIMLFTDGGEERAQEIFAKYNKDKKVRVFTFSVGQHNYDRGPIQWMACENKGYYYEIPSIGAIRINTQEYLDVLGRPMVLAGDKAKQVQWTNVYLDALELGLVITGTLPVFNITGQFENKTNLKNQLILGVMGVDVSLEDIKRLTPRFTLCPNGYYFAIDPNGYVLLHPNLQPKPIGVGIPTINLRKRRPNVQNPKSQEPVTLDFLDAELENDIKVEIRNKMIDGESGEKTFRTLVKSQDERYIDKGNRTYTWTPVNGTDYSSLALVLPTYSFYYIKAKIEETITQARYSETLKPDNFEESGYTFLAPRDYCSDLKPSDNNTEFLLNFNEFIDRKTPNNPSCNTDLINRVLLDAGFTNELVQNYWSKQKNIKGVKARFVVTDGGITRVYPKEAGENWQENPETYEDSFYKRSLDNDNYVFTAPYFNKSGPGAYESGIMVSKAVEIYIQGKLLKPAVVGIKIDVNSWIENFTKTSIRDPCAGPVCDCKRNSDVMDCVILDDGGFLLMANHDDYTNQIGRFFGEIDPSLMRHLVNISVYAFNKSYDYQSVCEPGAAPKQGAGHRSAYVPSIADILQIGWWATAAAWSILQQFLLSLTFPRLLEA
T1 sequence (P13806 961-1106 partner limits assumed, other chains not shown): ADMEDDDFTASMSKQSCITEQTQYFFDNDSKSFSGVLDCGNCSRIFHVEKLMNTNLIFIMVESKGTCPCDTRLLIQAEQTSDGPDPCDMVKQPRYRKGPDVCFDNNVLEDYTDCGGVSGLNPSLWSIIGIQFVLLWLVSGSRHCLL
Procedure: Female, New Zealand white rabbits (1-2 kg) are sacrificed by cervical dislocation, and the heart is immediately removed, cleaned and chopped into small pieces. The tissue is homogenized in 5×times volume of 0.05M Hepes buffer, pH 7.4. The homogenate is centrifuged at 4000 g for 10 minutes, and the supernatant is re-centrifuged at 42,000×g for 90 minutes. The resulting membrane pellet is resuspended (0.7 ml/g weight) in 0.05M Hepes, pH 7.4 and stored at […] until used. Each tube of the binding assay contains ^3H-nitrendipine (0.05-0.50 nM), buffer, membranes (0.10 ml), and test compound in a total volume of 1.0 ml. After 90 minutes at 4° C., the bound nitrendipine is separated from the unbound by filtration on Whatman GF/C filters. After rinsing, the filters are dried and counted in a liquid scintillation counter.
Non-specific binding of ^3H-nitrendipine (that amount bound in the presence of excess unlabelled nitrendipine) is subtracted from the total bound to obtain specifically bound radiolabeled nitrendipine. The amount of specifically bound nitrendipine in the presence of a test compound is compared to that amount bound in the absence of a compound. A percent displacement (or inhibition) can then be calculated.

pIC50	SMILES
7.33	CC1=C(C(=O)OCCN(C)Cc2ccccc2)C(c2c(F)cccc2Cl)C2=C(COc3ccccc3S2(=O)=O)N1 (stereo not shown) [Compound 7, 1H-[1,5]Benzoxathiepino[3,4-b]pyridine-3-carboxylic acid, 4-(2-chloro-6-fluorophenyl)-4,11-dihydro-2-methyl-, 2-[methyl(phenylmethyl)amino]ethyl ester, 5,5-dioxide]
6.96	CC1=C(C(=O)OCCN(C)Cc2ccccc2)C(c2cccc(Cl)c2)C2=C(COc3ccccc3S2(=O)=O)N1 (stereo not shown) [Compound 5, 1H-[1,5]Benzoxathiepino[3,4-b]pyridine-3-carboxylic acid, 4-(3-chlorophenyl)-4,11-dihydro-2-methyl-, 2-[methyl(phenylmethyl)amino]ethyl ester, 5,5-dioxide]
7.35	CC1=C(C(=O)OCCN(C)Cc2ccccc2)C(c2cccc([N+](=O)[O-])c2)C2=C(COc3ccccc3S2(=O)=O)N1 (stereo not shown) [Compound 4, 1H-[1,5]Benzoxathiepino[3,4-b]pyridine-3-carboxylic acid, 4,11-dihydro-2-methyl-4-(3-nitrophenyl)-, 2-[methyl(phenylmethyl)amino]ethyl ester, 5,5-dioxide]
7.21	COC(=O)C1=C(C)NC2=C(C1c1ccccc1Cl)S(=O)(=O)c1ccccc1OC2 (stereo not shown) [Compound 1, 1H-[1,5]Benzoxathiepino[3,4-b]pyridine-3-carboxylic acid, 4-(2-chlorophenyl)-4,11-dihydro-2-methyl-, methyl ester, 5,5-dioxide]
7.23	CC1=C(C(=O)OCCN(C)Cc2ccccc2)C(c2ccccc2Cl)C2=C(COc3ccccc3S2(=O)=O)N1 (stereo not shown) [Compound 2, 1H-[1,5]Benzoxathiepino[3,4-b]pyridine-3-carboxylic acid, 4-(2-chlorophenyl)-4,11-dihydro-2-methyl-, 2-[methyl(phenylmethyl)amino]ethyl ester, 5,5-dioxide]
7.48	COC(=O)C1=C(C)NC2=C(C1c1cccc([N+](=O)[O-])c1)S(=O)(=O)c1ccccc1OC2 (stereo not shown) [Compound 3, 1H-[1,5]Benzoxathiepino[3,4-b]pyridine-3-carboxylic acid, 4,11-dihydro-2-methyl-4-(3-nitrophenyl)-, methyl ester, 5,5-dioxide]
7.68	CC1=C(C(=O)OCCN(C)Cc2ccccc2)C(c2cccc(Cl)c2Cl)C2=C(COc3ccccc3S2(=O)=O)N1 (stereo not shown) [Compound 6, 1H-[1,5]Benzoxathiepino[3,4-b]pyridine-3-carboxylic acid, 4-(2,3-dichlorophenyl)4,11-dihydro-2-methyl-, 2-[methyl(phenylmethyl)amino]ethyl ester, 5,5-dioxide]
